Assay results from PMC9743092, “Membrane-Active Cyclic Amphiphilic Peptides: Broad-Spectrum Antibacterial Activity Alone and in Combination with Antibiotics” (Journal of Medicinal Chemistry, 2022).
Converted amounts (≈) assume the structure as drawn. Square brackets hold non-standard residues; d marks the D form. Peptide text beside a SMILES is read from it.

Columns and labels:
[1] = system: K. pneumoniae (ATCC BAA-1705); assay: Synergistic checkerboard assay; settings: for MIC: Klebsiella pneumoniae, ATCCBAA1705, read-out: MIC antibiotic alone
[2] = system: S. aureus (ATCC BAA-1556); assay: Synergistic checkerboard assay; assay type: cell-based; settings: Staphylococcus aureus, ATCCBAA1556; checkerboard; read-out: MIC antibiotic alone
MRSA (ATCC BAA-1556) [3] = assay: microbe, parasite or virus in culture; settings: Staphylococcus aureus, read-out: MIC S. aureus (ATCC BAA-1556)
[4] = system: P. aeruginosa (ATCC 27883); assay: microbe, parasite or virus in culture; settings: Pseudomonas aeruginosa, ATCC27883, read-out: MIC P. aeruginosa (ATCC 27883)
[5] = system: P. aeruginosa (ATCC 27883); assay: Synergistic checkerboard assay; assay type: cell-based; settings: Pseudomonas aeruginosa
[6] = system: K. pneumoniae (ATCC BAA-1705); settings: for MIC K. pneumoniae (ATCC BAA-1705): antibiotic alone or physical mixture with peptide (1:1 w/w); for MIC K. pneumoniae: supplementary csv, unit not given
E. coli (ATCC 25922) [7] = assay: Synergistic checkerboard assay; assay type: cell-based; settings: Escherichia coli, ATCC25922, read-out: MIC antibiotic alone
[8] = system: P. aeruginosa (ATCC 27883); set-up: MIC P. aeruginosa: unit not given beside the values; settings: for MIC P. aeruginosa: supplementary csv, unit not given
MRSA (ATCC BAA-1556) [9] = system: MRSA (ATCC BAA-1556); set-up: MIC MRSA: unit not given beside the values; settings: supplementary csv, unit not given
[10] = system: human red blood cells (hRBCs); settings: red cells of human, 2 h
E. coli (ATCC 25922) [11] = system: E. coli (ATCC 25922); set-up: MIC E. coli: unit not given beside the values; settings: supplementary csv, unit not given
[12] = ATCC27883, checkerboard, read-out: MIC antibiotic alone

| MIC P. aeruginosa [8] | MIC MRSA (MRSA (ATCC BAA-1556) [9]) | HC50 [10] [µg/mL] | MIC K. pneumoniae [6] | MIC E. coli (E. coli (ATCC 25922) [11]) | Structure (SMILES) | MIC [1] [µg/mL] | further results |
| --- | --- | --- | --- | --- | --- | --- | --- |
| – | – | – | – | – | Cc1ncc([N+](=O)[O-])n1CCO [metronidazole] | 256 | MIC [2]: 32 µg/mL; MIC (MRSA (ATCC BAA-1556) [3]): 32 µg/mL (≈ 187 µM); MIC [4]: 32 µg/mL (≈ 187 µM); MIC [5, 12]: 32 µg/mL; MIC K. pneumoniae (ATCC BAA-1705) [6]: 256 µg/mL (≈ 1500 µM) |
| – | – | – | – | – | C[C@H]1COc2c(N3CCN(C)CC3)c(F)cc3c(=O)c(C(=O)O)cn1c23.C[C@H]1COc2c(N3CCN(C)CC3)c(F)cc3c(=O)c(C(=O)O)cn1c23.O [levofloxacin] | 64 | MIC (E. coli (ATCC 25922) [7]): 64 µg/mL; MIC ([5]; ATCC27883, read-out: MIC antibiotic alone): 1 µg/mL |
| – | – | – | – | – | CCC[C@@H]1C[C@@H](C(=O)N[C@@H]([C@H]2O[C@H](SC)[C@H](O)[C@@H](O)[C@H]2O)[C@H](C)Cl)N(C)C1 [clindamycin] | 512 | MIC antibiotic alone ([1]; checkerboard): 512 µg/mL; MIC P. aeruginosa (ATCC 27883) ([8]; antibiotic alone or physical mixture with peptide (1:1 w/w)): 512 µg/mL (≈ 1200 µM); MIC [5, 12]: 512 µg/mL; MIC K. pneumoniae (ATCC BAA-1705) [6]: 512 µg/mL (≈ 1200 µM) |
| 128 | 16 | 170 | 64 | 64 | N=C(N)NCCC[C@@H]1NC(=O)[C@H](CCCNC(=N)N)NC(=O)[C@H](CCCNC(=N)N)NC(=O)[C@H](CCCNC(=N)N)NC(=O)[C@H](Cc2c[nH]c3ccccc23)NC(=O)[C@H](Cc2c[nH]c3ccccc23)NC(=O)[C@H](Cc2c[nH]c3ccccc23)NC(=O)[C@H](Cc2c[nH]c3ccccc23)NC(=O)[C@H](Cc2c[nH]c3ccccc23)NC(=O)[C@H](Cc2c[nH]c3ccccc23)NC(=O)[C@H](CCCNC(=N)N)NC(=O)[C@H](CCCNC(=N)N)NC1=O [6c, [R6W6]] (cyclo(RRRRRRWWWWWW)) | – | – |
| 64 | 8 | 110 | 64 | 16 | N=C(N)NCCC[C@H]1NC(=O)[C@H](Cc2c[nH]c3ccccc23)NC(=O)[C@H](Cc2c[nH]c3ccccc23)NC(=O)[C@H](Cc2c[nH]c3ccccc23)NC(=O)[C@H](Cc2c[nH]c3ccccc23)NC(=O)[C@@H](CCCNC(=N)N)NC(=O)[C@@H](CCCNC(=N)N)NC(=O)[C@@H](CCCNC(=N)N)NC1=O [4a, [dR4W4]] (cyclo([dR][dR][dR][dR]WWWW)) | – | – |
| 256 | 64 | 85 | 256 | 256 | N=C(N)NCCC[C@@H]1NC(=O)[C@H](CCCNC(=N)N)NC(=O)[C@H](Cc2c[nH]c3ccccc23)NC(=O)[C@H](Cc2c[nH]c3ccccc23)NC(=O)[C@H](Cc2c[nH]c3ccccc23)NC(=O)[C@H](Cc2c[nH]c3ccccc23)NC1=O [2b, [R2W4]] (cyclo(RRWWWW); ring closure inferred) | – | – |

| Structure (SMILES) | MIC P. aeruginosa [8] | MIC MRSA (MRSA (ATCC BAA-1556) [9]) | HC50 [10] [µg/mL] | MIC K. pneumoniae [6] | MIC E. coli (E. coli (ATCC 25922) [11]) | MIC [1] [µg/mL] | further results |
| --- | --- | --- | --- | --- | --- | --- | --- |
| N=C(N)NCCC[C@@H]1NC(=O)[C@H](CCCNC(=N)N)NC(=O)[C@H](Cc2c[nH]c3ccccc23)NC(=O)[C@H](Cc2c[nH]c3ccccc23)NC(=O)[C@H](Cc2c[nH]c3ccccc23)NC1=O [2a, [R2W3]] (cyclo(RRWWW); ring closure inferred) | 256 | 32 | 120 | 256 | 256 | – | – |
